Legend:
Type in all cases: biochemical
50 kDa chitotriosidase = molecular target: T1, 50 kDa chitotriosidase (Homo sapiens, UniProt Q13231); experiment: hydrolysis of 4-MU substrates by pure 50 kDa chitotriosidase, fluorimetric 4-MU release; settings: 37 C
T1 construct: made in house
Procedure: FIG. 3. Substrate concentration dependency of chitriosidase activity with novel artificial substrate as compared to present one. Activity of 50 kDa chitotriosdase towards 4-MU-chitobiose and 4-deoxy-variant hereof (CHIS1). Enzyme was incubated at 37 C with indicated concentrations of substrates. Reactions were stopped after 10 minutes and 4-MU measured fluorometrically.
FIG. 4. Improved linearity of chitotriosidase assay with time and enzyme concentration. Activity of 50 kDa chitotriosdase towards 4-MU-chitobiose and 4-deoxy-variant hereof (CHIS). Reaction time (FIG. 5a) and concentration of enzyme (FIG. 5b) were varied and enzyme activity was measured with 4MU-chitobiose and 4-deoxy-variant hereof.
The CHISI compound was tested as substrate. For this purpose, pure 50 kDa chitotriosidase was incubated with this substrate at 37 C in Mclvaine buffer (pH 5.5). For comparison the enzymes were in parallel incubated with 4-MU-chitobiose (Sigma). The reaction was stopped by adding excess of 0.1 M glycine-NaOH @H 10.3) and fluorescence was monitored (excitation at 366 nm, emission at 445 nm).
Even more importantly, saturating substrate concentrations (100-200 microM) can be used in the case of CHIS (Km of chitotriosidase is 50 microM). This renders a great improvement with regard to reproducibility of the assay and interpretation of results. […]

[1] = molecular target: T2, lysozyme from chicken egg (Gallus gallus, UniProt P00698); experiment: substrate preference of lysozyme, 4MU release; settings: lysozyme from chicken egg (Sigma)
T2 construct: lysozyme from chicken egg; purchased Sigma; host or cells: chicken egg
Source text: (§1) Substrate preference of lysozyme. The enzymatic activity of commercial lysozyme preparations was 25 measured with 4-MU-chitobioside and 4MU-deoxychitbioside substrates. The release of 4MU was detected fluorimetrically, as described before. Similar to the findings for chitotriosidase (chitinase), the activity measured with the deoxy-subsytrate is far higher: […]

lysozyme from human milk = molecular target: T3, lysozyme from human milk (Homo sapiens, UniProt P61626); experiment: substrate preference of lysozyme, 4MU release; settings: lysozyme from human milk (Sigma)
T3 construct: lysozyme from human milk; purchased Sigma; host or cells: human milk
T3 sequence (P61626 19-148): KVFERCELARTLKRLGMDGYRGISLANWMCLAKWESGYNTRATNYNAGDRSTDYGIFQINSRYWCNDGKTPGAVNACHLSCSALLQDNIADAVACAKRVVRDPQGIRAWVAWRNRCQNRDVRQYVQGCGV
Source text: as §1

[2] = molecular target: T4, lysozyme from human neutrophils (Homo sapiens, UniProt P61626); experiment: substrate preference of lysozyme, 4MU release; settings: lysozyme from human neutrophils (Sigma)
T4 construct: lysozyme from human neutrophils; purchased Sigma; host or cells: human neutrophils
T4 sequence (P61626 19-148): T3 sequence (P61626 19-148)
Source text: as §1

[3] = tested on: bacterial chitinase, 39 and 50 kDa forms of human and mouse chitotriosidase and AMCases, fetal calf serum chitinase; experiment: CHIS versus 4-MU-chitobiose as substrate for other chitinases; settings: in all cases (not shown)
Procedure: For this purpose, assays were performed with CHIS and 4-MU-chitobiose as substrate with bacterial chitinase (Sigma), purified recombinant 39 and 50 kDa forms of human and mouse chitotriosidase and AMCases and purified fetal calf serum chitinase.

T1 sequence (Q13231 22-466): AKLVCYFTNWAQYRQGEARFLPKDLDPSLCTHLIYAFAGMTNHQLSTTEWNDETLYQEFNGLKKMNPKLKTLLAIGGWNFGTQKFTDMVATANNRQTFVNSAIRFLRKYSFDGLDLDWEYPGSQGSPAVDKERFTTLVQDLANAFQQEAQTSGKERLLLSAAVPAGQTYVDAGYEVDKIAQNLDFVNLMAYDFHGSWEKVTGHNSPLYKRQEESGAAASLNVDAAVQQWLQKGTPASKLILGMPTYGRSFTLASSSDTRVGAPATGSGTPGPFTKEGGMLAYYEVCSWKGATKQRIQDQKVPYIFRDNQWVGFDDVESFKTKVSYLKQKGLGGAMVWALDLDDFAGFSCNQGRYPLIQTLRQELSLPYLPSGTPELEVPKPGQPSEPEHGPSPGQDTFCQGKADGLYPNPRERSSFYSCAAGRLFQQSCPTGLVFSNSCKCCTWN
T2 sequence (P00698 19-147): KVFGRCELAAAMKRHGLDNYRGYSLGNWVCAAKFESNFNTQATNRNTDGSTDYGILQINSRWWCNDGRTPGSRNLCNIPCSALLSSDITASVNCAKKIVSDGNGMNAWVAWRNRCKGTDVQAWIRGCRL

CC(=O)N[C@H]1[C@H](Oc2ccc3c(C)cc(=O)oc3c2)O[C@H](CO)[C@@H](O[C@@H]2O[C@H](CO)C[C@H](O)[C@H]2NC(C)=O)[C@@H]1O [CHIS1, 4-methylumbellyferyl 2-acetamido-2-deoxy-4-0-(2-acetamido-2,4-dideoxy-beta-D-glucopyranosyl)-beta-Dglucopyranoside]
Km (50 kDa chitotriosidase; Mclvaine buffer pH 5.5): 50 µM
substrate inhibition (50 kDa chitotriosidase; pure 50 kDa chitotriosidase, pH 5.5, FIG. 3): does not show substrate inhibition
ratio 4MU-deoxychitobioside/4Mu-chitobioside [1]: 2.1-2.4
ratio 4MU-deoxychitobioside/4Mu-chitobioside (lysozyme from human milk): 2.5-3.0
ratio 4MU-deoxychitobioside/4Mu-chitobioside [2]: 3.0-3.2
substrate behaviour with other chitinases [3]: far more sensitive and linear at saturating substrate concentration
